According to patent US20110142889A1, “COMPOSITIONS AND METHODS FOR ORAL DRUG DELIVERY” (NOD Pharmaceuticals, Inc., priority 2009, published 2011):

Assays:
[1] = colon suppository containing 25 mg sodium caprate; cited from earlier work
[2] = estimated; cited from earlier work
blood glucose = test: effect of oral insulin on blood glucose in somatostatin infused dogs (Example 9); type: in vivo, beagle dogs; settings: somatostatin infusion 1 μg/kg/min; FIG. 8B
Description: Water was supplied ad libitum.

[3] = dog, in vivo
Description: The absorption of oral insulin was evaluated in beagles under somatostatin infusion at 1 μg/kg/min via an indwelling vein catheter.
Twelve beagle dogs with body weights between 8-12 kg were housed in an animal facility. The dogs were randomly divided into three groups and fasted overnight. Water was supplied ad libitum. Somatostatin infusion (1 μg/kg/min) was performed using a balloon infusion pump via an indwelling vein catheter, and tablets were fed with 10 ml water at 4 hr after initiation of somatostatin infusion. Food was restricted during the study, and blood samples were collected at various time points in heparinized tubes.
Blood glucose concentration was measured with a glucometer and matching testing strips (Johnson & Johnson, OneTouch®), and serum samples of 0.5-0.6 ml were recovered after blood samples were collected and centrifuged at 3000 rpm for 10 min. The samples were frozen at −20° C., and insulin concentration was measured by ELISA (Linco).

CC1(C)S[C@@H]2[C@H](NC(=O)[C@H](N)c3ccccc3)C(=O)N2[C@H]1C(=O)O [ampicillin]
increase of area under the serum concentration-time curve (AUC) compared to ampicillin alone [1]: 2.3 fold
increase of maximum serum concentration (Cmax) compared to ampicillin alone [1]: 2.6 fold

CCCCCCCCCC(=O)[O-].[Na+] [sodium caprate]
concentration needed to achieve a permeation enhancing effect [2]: 10 to 13 mM

insulin [Insulin injection]
effect on blood glucose (blood glucose): rapid and profound reduction of glucose levels
effect on serum insulin concentration [3]: large increase in insulin concentration
